Here are results for 44 compounds from ChEMBL document CHEMBL4390673, “Identification of Novel Coumestan Derivatives as Polyketide Synthase 13 Inhibitors against Mycobacterium tuberculosis. Part II” (J Med Chem, 2019).

Values after ≈ are worked out from the molar mass of the structure shown. A value given as a limit tells only on which side of the number the result lay.

Assay [1] relates to Polyketide synthase Pks13 (Mycobacterium tuberculosis (strain ATCC 25618 / H37Rv)), I6X8D2 [D1644G,N1640K]. Nature of the assay: Inhibition of Pks13 D1644G/N1640K double mutant thioesterase domain in Mycobacterium tuberculosis H37Rv assessed as reduction in bacterial growth by microplate alamar blue assay. (In general: The colour change of resazurin is a common sign of viable cells or microbes.)

The test system is the same in assay [2]. Nature of the assay: Inhibition of Pks13 D1644G/N1640K double mutant thioesterase domain in drug-susceptible Mycobacterium tuberculosis V4207 assessed as reduction in bacterial growth by microplate alamar blue assay.
Assay [3] has the same test system. Nature of the assay: Inhibition of Pks13 D1644G/N1640K double mutant thioesterase domain in extensively drug-resistant Mycobacterium tuberculosis R506 assessed as reduction in bacterial growth by microplate alamar blue assay.
The test system is the same in assay [4]. Nature of the assay: Inhibition of Pks13 D1644G/N1640K double mutant thioesterase domain in multidrug-resistant Mycobacterium tuberculosis KZN494 assessed as reduction in bacterial growth by microplate alamar blue assay.
Assay [5] shares this test system. As to the kind of experiment: Inhibition of Pks13 D1644G/N1640K double mutant thioesterase domain in extensively drug-resistant Mycobacterium tuberculosis TF274 assessed as reduction in bacterial growth by microplate alamar blue assay.
Assay [6] has the same test system. As to the kind of experiment: Inhibition of Pks13 D1644G/N1640K double mutant thioesterase domain in multidrug-resistant Mycobacterium tuberculosis V2475 assessed as reduction in bacterial growth by microplate alamar blue assay.

In the case of `COc1cc2oc3c4ccccc4oc(=O)c3c2c(CN2CCCCC2)c1O`, the MIC=<90 in assay [1] stood at 2 µg/mL (≈ 5.27 µM).

As for `C[C@@H]1NC(=O)[C@@H](N)CNC(=O)[C@H](C2CCNC(=N)N2)NC(=O)/C(=C/NC(N)=O)NC(=O)[C@H](CNC(=O)CC(N)CCCN)NC1=O.N=C1NCCC([C@@H]2NC(=O)/C(=C/NC(N)=O)NC(=O)[C@H](CNC(=O)CC(N)CCCN)NC(=O)[C@H](CO)NC(=O)[C@@H](N)CNC2=O)N1` (stereo partly specified), the MIC=<90 in assay [1] was determined as 1 µg/mL. In the case of `NC[C@H]1O[C@H](O[C@H]2[C@H](O)[C@@H](O[C@H]3O[C@H](CO)[C@@H](O)[C@H](N)[C@H]3O)[C@H](N)C[C@@H]2N)[C@H](O)[C@@H](O)[C@@H]1O`, the MIC=<90 was 2 µg/mL (≈ 4.13 µM) in assay [2]; greater than 128 µg/mL in assay [3]; 2 µg/mL (≈ 4.13 µM) in assay [4]; 2 µg/mL (≈ 4.13 µM) in assay [1]; greater than 128 µg/mL in assay [5]; 2 µg/mL (≈ 4.13 µM) in assay [6]. Regarding `NCC[C@H](O)C(=O)N[C@@H]1C[C@H](N)[C@@H](O[C@H]2O[C@H](CN)[C@@H](O)[C@H](O)[C@H]2O)[C@H](O)[C@H]1O[C@H]1O[C@H](CO)[C@@H](O)[C@H](N)[C@H]1O`, in assay [1], the MIC=<90 came out at 1 µg/mL (≈ 1.71 µM). In the case of `CC1CCCN(Cc2c(O)ccc3oc4c5ccccc5oc(=O)c4c23)C1` (stereo unspecified), the MIC=<90 in assay [1] turned out to be 2 µg/mL (≈ 5.5 µM). `CC(C)(C)c1cc(O)c(CN2CCCCC2)c2c1oc1c3cc(O)ccc3oc(=O)c12`: the MIC=<90 in assay [1] amounted to 0.125 µg/mL (≈ 0.297 µM). On the same count and under the same terms, as for `O=c1oc2ccccc2c2oc3cc(CN4CCCCC4)c(O)cc3c12`, the figure is greater than 64 µg/mL; as for `O=c1oc2ccccc2c2oc3cc([N+](=O)[O-])c(O)c(CN4CCCCC4)c3c12`, greater than 64 µg/mL. Take `CNC(=O)c1c(-c2ccc(O)cc2)oc2ccc(O)c(CN3CCCCC3)c12`: the MIC=<90 in assay [1] is 0.0313 µg/mL (≈ 0.0823 µM). As to `COCCOc1ccc2oc3c4ccccc4oc(=O)c3c2c1CN1CCCC1=O`, the MIC=<90 in assay [1] was greater than 64 µg/mL. For `O=c1oc2ccccc2c2oc3cc(Br)c(O)c(CN4CCCCC4)c3c12`, in assay [1], the MIC=<90 was greater than 64 µg/mL.

In the case of `CC1COc2c(N3CCN(C)CC3)c(F)cc3c(=O)c(C(=O)O)cn1c23` (stereo unspecified), the MIC=<90 in assay [2] is 0.5 µg/mL (≈ 1.38 µM); in assay [3] it was 4 µg/mL (≈ 11.1 µM); in assay [4] it was 0.5 µg/mL (≈ 1.38 µM); in assay [5] it was 8 µg/mL (≈ 22.1 µM); in assay [6], 0.5 µg/mL (≈ 1.38 µM). In the case of `O=c1oc2ccccc2c2oc3ccc(O)cc3c12`, in assay [1], the MIC=<90 is greater than 64 µg/mL. Same read-out and setting: as for `O=C1CCCCN1Cc1c(O)ccc2oc3c4ccccc4oc(=O)c3c12`, the figure is greater than 64 µg/mL; as for `O=c1oc2ccccc2c2oc3c(Br)cc(O)c(CN4CCCCC4)c3c12`, 2 µg/mL (≈ 4.67 µM). `CCOC(=O)c1c(-c2ccccc2)oc2ccc(O)c(CN3CCC(C)CC3)c12`: in assay [1], the MIC=<90 was determined as 1 µg/mL (≈ 2.54 µM). As to `CC[C@@H](CO)NCCN[C@@H](CC)CO`, the MIC=<90 in assay [1] was 1 µg/mL (≈ 4.89 µM).

In the case of `Cc1cc(O)c(CN2CCCCC2)c2c1oc1c3ccccc3oc(=O)c12`, the MIC=<90 in assay [1] came out at 0.125 µg/mL (≈ 0.344 µM). As for `O=c1oc2cc(O)ccc2c2oc3ccc(O)c(CN4CCCCC4)c3c12`, the MIC=<90 in assay [2] came to 0.0078 µg/mL (≈ 0.0213 µM); in assay [3], 0.0078 µg/mL (≈ 0.0213 µM); in assay [4] it was 0.0039 µg/mL (≈ 0.0107 µM); in assay [1], 0.0039 µg/mL (≈ 0.0107 µM); in assay [5], 0.0078 µg/mL (≈ 0.0213 µM); in assay [6] it was 0.0156 µg/mL (≈ 0.0427 µM). `O=C(NCC1CC1)c1c(O)ccc2oc3c4ccccc4oc(=O)c3c12`: in assay [1], the MIC=<90 was greater than 64 µg/mL. Turning to `CC1CCCCN1Cc1c(O)ccc2oc3c4ccccc4oc(=O)c3c12` (stereo unspecified), in assay [1], the MIC=<90 amounted to 1 µg/mL (≈ 2.75 µM).

In the case of `O=c1oc2cc(O)c(O)cc2c2oc3cc(O)c(O)c(CN4CCCCC4)c3c12`, in assay [1], the MIC=<90 came to 32 µg/mL (≈ 80.5 µM). Still for that read-out and setting: the result for `O=c1oc2ccc(O)cc2c2oc3ccc(O)c(CN4CCCCC4)c3c12` reads 0.5 µg/mL (≈ 1.37 µM). On to `CC(C)(C)c1cc(O)c(CN2CCCCC2)c2c1oc1c3ccc(O)cc3oc(=O)c12`, for which the MIC=<90 is 0.0039 to 0.0078 µg/mL (≈ 0.00925 to 0.0185 µM) in assay [2]; 0.0039 µg/mL (≈ 0.00925 µM) in assay [3]; 0.001 to 0.002 µg/mL (≈ 0.00237 to 0.00475 µM) in assay [4]; 0.0039 µg/mL (≈ 0.00925 µM) in assay [1]; 0.0039 µg/mL (≈ 0.00925 µM) in assay [5]; 0.0156 µg/mL (≈ 0.037 µM) in assay [6]. `NNC(=O)c1ccncc1`: the MIC=<90 was determined as 0.04 µg/mL (≈ 0.292 µM) in assay [2]; 8 µg/mL (≈ 58.3 µM) in assay [3]; 16 µg/mL (≈ 117 µM) in assay [4]; 0.04 µg/mL (≈ 0.292 µM) in assay [1]; 8 µg/mL (≈ 58.3 µM) in assay [5]; 16 µg/mL (≈ 117 µM) in assay [6]. Consider `COCCOc1ccc2oc3c4ccccc4oc(=O)c3c2c1CN1CCCCC1=O`, for which, in assay [1], the MIC=<90 was greater than 64 µg/mL. For `C[C@H]1COc2c(N3CCN(C)CC3)c(F)cc3c(=O)c(C(=O)O)cn1c23`, the MIC=<90 in assay [2] came out at 0.125 µg/mL (≈ 0.346 µM); in assay [3], 2 µg/mL (≈ 5.53 µM); in assay [1] it was 0.25 µg/mL (≈ 0.692 µM); in assay [5] it was 1 µg/mL (≈ 2.77 µM). As for `CCOc1ccc2oc3c4ccccc4oc(=O)c3c2c1CN1CCCCC1=O`, in assay [1], the MIC=<90 is greater than 64 µg/mL. Still for that read-out and setting: the result for `O=c1oc2ccccc2c2oc3ccc(O)c(CN4CCCCC4)c3c12` reads 0.125 to 0.25 µg/mL (≈ 0.358 to 0.716 µM); that for `COc1ccc2oc3c4ccccc4oc(=O)c3c2c1C(=O)N1CCCCC1`, greater than 64 µg/mL.

For the compound `COc1ccc2oc3c4ccccc4oc(=O)c3c2c1CN1CCCC1=O`, in assay [1], the MIC=<90 is greater than 64 µg/mL.

For `O=C(c1cc2oc3c4ccccc4oc(=O)c3c2cc1O)N1CCCCC1`, the MIC=<90 in assay [1] was greater than 64 µg/mL. For `O=C1CCCCCN1Cc1c(O)ccc2oc3c4ccccc4oc(=O)c3c12`, in assay [1], the MIC=<90 is greater than 64 µg/mL. On the same count and under the same terms, as for `O=c1oc2ccccc2c2oc3cc(O)c(O)c(CN4CCCCC4)c3c12`, the figure is 4 µg/mL (≈ 10.9 µM); as for `COc1c(N2C[C@@H]3CCCN[C@@H]3C2)c(F)cc2c(=O)c(C(=O)O)cn(C3CC3)c12`, 0.0625 to 0.125 µg/mL (≈ 0.156 to 0.311 µM). For `O=C1CCCN1Cc1c(O)ccc2oc3c4ccccc4oc(=O)c3c12`, the MIC=<90 in assay [1] was greater than 64 µg/mL. Still for that read-out and setting: the result for `O=c1oc2ccccc2c2oc3c(Cl)cc(O)c(CN4CCCCC4)c3c12` reads 2 µg/mL (≈ 5.21 µM); that for `CC(C)(C)c1cc(O)c(CN2CCCCC2)c2c1oc1c3ccccc3oc(=O)c12`, 0.0625 to 0.125 µg/mL (≈ 0.154 to 0.308 µM). As for `CO[C@H]1/C=C/O[C@@]2(C)Oc3c(C)c(O)c4c(O)c(c(/C=N/N5CCN(C)CC5)c(O)c4c3C2=O)NC(=O)/C(C)=C\C=C\[C@H](C)[C@H](O)[C@@H](C)[C@@H](O)[C@@H](C)[C@H](OC(C)=O)[C@@H]1C`, the MIC=<90 in assay [2] is 0.0625 µg/mL (≈ 0.0759 µM); in assay [3], greater than 128 µg/mL; in assay [4], 128 µg/mL (≈ 156 µM); in assay [1] it was 0.125 µg/mL (≈ 0.152 µM); in assay [5], greater than 128 µg/mL; in assay [6], 4 µg/mL (≈ 4.86 µM). Take `O=c1oc2ccccc2c2oc3ccc(O)c(CN4CCCC4)c3c12`: in assay [1], the MIC=<90 is 0.5 µg/mL (≈ 1.49 µM).

Take `COc1ccc2oc3c4ccccc4oc(=O)c3c2c1CN1CCCCC1=O`: the MIC=<90 in assay [1] is greater than 64 µg/mL. On to `O=c1oc2cc(O)ccc2c2oc3cc(O)c(O)c(CN4CCCCC4)c3c12`, for which the MIC=<90 in assay [1] was 2 µg/mL (≈ 5.24 µM). The same measure, in the same setting: the result for `O=C(c1c(O)ccc2oc3c4ccccc4oc(=O)c3c12)N1CCCCC1` reads greater than 64 µg/mL; that for `CC1CCN(Cc2c(O)ccc3oc4c5ccccc5oc(=O)c4c23)CC1`, 0.5 µg/mL (≈ 1.38 µM).
